Measured values published in ChEMBL document CHEMBL1145967, “Design, synthesis, and biological activities of classical N-[4-[2-(2-amino-4-ethylpyrrolo[2,3-d]pyrimidin-5-yl)ethyl]benzoyl]-l-glutamic acid and its 6-methyl derivative as potential dual inhibitors of thymidylate synthase and dihydrofolate reductase and as potential antitumor agents” (J Med Chem, 2003).

Key:
R2-CCRF-CEM = assay: Growth inhibition of MTX-resistant subline R2-CCRF-CEM Human Leukemia Cell was determined; format: functional, cell-based
R1-CCRF-CEM = assay: Growth inhibition of MTX-resistant subline R1-CCRF-CEM Human Leukemia Cell was determined; format: functional, cell-based
R30dm-CCRF-CEM = assay: Growth inhibition of MTX-resistant subline R30dm-CCRF-CEM Human Leukemia Cell was determined; format: functional, cell-based
SW-620 = assay: Cytotoxicity evaluation against SW-620 colon cancer cells; format: functional; conditions: Homo sapiens
K562 = assay: Cytotoxicity evaluation against K-562 Leukemia cells; format: functional; conditions: Homo sapiens
UACC-62 = assay: Cytotoxicity evaluation against UACC-62 melanoma cells; format: functional; conditions: Homo sapiens
HCT-15 = assay: Cytotoxicity evaluation against HCT-15 colon cancer cells; format: functional; conditions: Homo sapiens
Dihydrofolate reductase = Dihydrofolate reductase (Homo sapiens, UniProt P00374)
Sequence of Dihydrofolate reductase (P00374 whole entry): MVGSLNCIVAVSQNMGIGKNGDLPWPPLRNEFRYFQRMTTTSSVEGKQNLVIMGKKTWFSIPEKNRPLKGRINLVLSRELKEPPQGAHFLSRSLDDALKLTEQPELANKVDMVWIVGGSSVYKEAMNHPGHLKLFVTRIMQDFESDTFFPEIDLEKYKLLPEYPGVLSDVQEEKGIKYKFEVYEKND

MDA-MB-435 = assay: Cytotoxicity evaluation against MDA-MB-435 breast cancer cells; format: functional; conditions: Homo sapiens
UACC-257 = assay: Cytotoxicity evaluation against UACC-257 melanoma cells; format: functional; conditions: Homo sapiens
MDA-N = assay: Cytotoxicity evaluation against […] breast cancer cells; format: functional; conditions: Homo sapiens
HT-29 = assay: Cytotoxicity evaluation against HT-29 colon cancer cells; format: functional; conditions: Homo sapiens
HL-60 = assay: Cytotoxicity evaluation against HL-60 Leukemia cells; format: functional; conditions: Homo sapiens
LOX IMVI = assay: Cytotoxicity evaluation against LOX IMVI melanoma cells; format: functional; conditions: Homo sapiens
SN12C = assay: Cytotoxicity evaluation against SN12C renal cancer cells; format: functional; conditions: Homo sapiens
OVCAR-4 = assay: Cytotoxicity evaluation against OVCAR-4 cells; format: functional; conditions: Homo sapiens
[1] = target: Dihydrofolate reductase (Homo sapiens) (UniProt P00374); assay: Compound was evaluated as inhibitor of human Dihydrofolate reductase; conditions: concentration not given here
Sequence of Dihydrofolate reductase (Homo sapiens) (P00374 whole entry): as above

MOLT-4 = assay: Cytotoxicity evaluation against MOLT-4 Leukemia cells; format: functional; conditions: Homo sapiens
Thymidylate synthase [2] = target: Thymidylate synthase (Homo sapiens, UniProt P04818); assay: Compound was evaluated as inhibitor of human thymidylate synthase
Sequence of Thymidylate synthase (Homo sapiens, UniProt P04818) (P04818 whole entry): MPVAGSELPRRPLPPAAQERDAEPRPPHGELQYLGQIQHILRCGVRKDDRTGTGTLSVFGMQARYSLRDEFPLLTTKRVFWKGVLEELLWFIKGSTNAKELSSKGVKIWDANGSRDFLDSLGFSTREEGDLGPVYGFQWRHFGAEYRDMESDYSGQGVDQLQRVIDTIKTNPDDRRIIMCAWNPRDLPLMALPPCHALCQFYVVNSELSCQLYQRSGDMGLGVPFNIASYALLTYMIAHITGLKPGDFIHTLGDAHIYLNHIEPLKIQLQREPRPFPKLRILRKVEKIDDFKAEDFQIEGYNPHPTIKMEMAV

MCF7 = assay: Cytotoxicity evaluation against MCF-7 breast cancer cells; format: functional; conditions: Homo sapiens
SF-539 = assay: Cytotoxicity evaluation against SF-539 CNS cancer cells; format: functional; conditions: Homo sapiens
Thymidylate synthase [3] = target: Thymidylate synthase (Lactobacillus casei, UniProt P00469); assay: Compound was evaluated as inhibitor of Lactobacillus casei thymidylate synthase; set-up: species or system Lacticaseibacillus casei
Sequence of Thymidylate synthase (Lactobacillus casei, UniProt P00469) (P00469 whole entry): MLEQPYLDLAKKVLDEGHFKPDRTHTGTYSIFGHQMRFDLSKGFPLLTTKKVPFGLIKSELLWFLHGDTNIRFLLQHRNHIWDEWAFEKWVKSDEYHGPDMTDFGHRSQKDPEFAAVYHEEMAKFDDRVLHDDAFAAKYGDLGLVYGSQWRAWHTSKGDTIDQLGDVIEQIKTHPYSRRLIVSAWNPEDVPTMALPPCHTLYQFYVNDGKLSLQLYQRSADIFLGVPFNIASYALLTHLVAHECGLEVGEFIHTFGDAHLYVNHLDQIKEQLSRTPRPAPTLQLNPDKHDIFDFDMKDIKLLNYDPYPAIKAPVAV

ACHN = assay: Cytotoxicity evaluation against ACHN renal cancer cells; format: functional; conditions: Homo sapiens
A549 = assay: Cytotoxicity evaluation against A549/ATCC non-small-cell lung cancer cells; format: functional; conditions: Homo sapiens
CCRF-CEM = assay: Growth inhibition of CCRF-CEM Human Leukemia Cell was determined; format: functional, cell-based
NCI-H226 = assay: Cytotoxicity evaluation against NCI-H226 non-small-cell lung cancer cells; format: functional; conditions: Homo sapiens
NCI-H460 = assay: Cytotoxicity evaluation against NCI-H460 non-small-cell lung cancer cells; format: functional; conditions: Homo sapiens
Thymidylate synthase [4] = target: Thymidylate synthase (Escherichia coli, UniProt C3SWJ7); assay: Compound was evaluated as inhibitor of Escherichia coli thymidylate synthase
Sequence of Thymidylate synthase (Escherichia coli, UniProt C3SWJ7) (C3SWJ7 whole entry): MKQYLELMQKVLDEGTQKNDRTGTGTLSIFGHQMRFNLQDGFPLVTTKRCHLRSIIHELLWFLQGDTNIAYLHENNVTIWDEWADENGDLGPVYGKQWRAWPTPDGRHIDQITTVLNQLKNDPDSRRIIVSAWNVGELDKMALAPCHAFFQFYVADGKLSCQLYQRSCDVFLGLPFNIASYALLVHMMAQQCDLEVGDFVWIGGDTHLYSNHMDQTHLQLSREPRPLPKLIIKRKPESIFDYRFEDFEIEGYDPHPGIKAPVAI

[5] = substrate: CCc1[nH]c(N)nc2ncc(CCc3ccc(C(=O)N[C@@H](CCC(=O)O)C(=O)O)cc3)c1-2; assay: (§1) Activity of compound calculated as Km was tested as substrate for human Folyl-polyglutamate synthase
[6] = substrate: CCc1[nH]c(N)nc2nc(C)c(CCc3ccc(C(=O)N[C@@H](CCC(=O)O)C(=O)O)cc3)c1-2; assay: as §1
[7] = substrate: Nc1nc(N)c2nc(CNc3ccc(C(=O)N[C@@H](CCC(=O)O)C(=O)O)cc3)cnc2n1; assay: (§2) Activity of compound calculated as maximum activity of substrate for human Folyl-polyglutamate synthase relative to the maximum activity for aminopterin
[8] = substrate: Cc1nc(N)nc2[nH]cc(CCc3ccc(C(=O)N[C@@H](CCC(=O)O)C(=O)O)cc3)c12; assay: as §2
[9] = substrate: CCc1[nH]c(N)nc2ncc(CCc3ccc(C(=O)N[C@@H](CCC(=O)O)C(=O)O)cc3)c1-2; assay: as §2
[10] = substrate: CCc1[nH]c(N)nc2nc(C)c(CCc3ccc(C(=O)N[C@@H](CCC(=O)O)C(=O)O)cc3)c1-2; assay: as §2

Row | Molecule | EC50 (R2-CCRF-CEM) | EC50 (R1-CCRF-CEM) | EC50 (R30dm-CCRF-CEM) | GI50 (SW-620) | GI50 (K562) | GI50 (UACC-62) | GI50 (HCT-15) | GI50 (MDA-MB-435) | GI50 (UACC-257) | GI50 (MDA-N) | GI50 (HT-29) | GI50 (HL-60) | GI50 (LOX IMVI) | GI50 (SN12C) | GI50 (OVCAR-4) | GI50 (MOLT-4) | IC50 (Thymidylate synthase [2]) | GI50 (MCF7) | GI50 (SF-539) | GI50 (ACHN) | further results
1 | CN(Cc1cnc2nc(N)nc(N)c2n1)c1ccc(C(=O)N[C@@H](CCC(=O)O)C(=O)O)cc1 [METHOTREXATE] | 2.63 µM | 0.985 µM | 0.0128 µM | – | – | – | – | – | – | – | – | – | – | – | – | – | – | – | – | – | –
2 | Cc1nc(N)nc2[nH]cc(CCc3ccc(C(=O)N[C@@H](CCC(=O)O)C(=O)O)cc3)c12 | 0.575 µM | 0.158 µM | 0.0185 µM | > 100 µM | 14.7 µM | > 100 µM | > 100 µM | > 100 µM | > 100 µM | > 100 µM | > 100 µM | < 0.01 µM | 11.5 µM | > 100 µM | > 100 µM | – | – | – | – | – | IC50 (Dihydrofolate reductase): 1.2 µM
3 | CCc1[nH]c(N)nc2nc(C)c(CCc3ccc(C(=O)N[C@@H](CCC(=O)O)C(=O)O)cc3)c1-2 | > 10 µM | > 20 µM | > 20 µM | > 100 µM | 0.143 µM | > 100 µM | > 100 µM | > 100 µM | > 100 µM | > 100 µM | > 100 µM | < 0.01 µM | 98.6 µM | > 100 µM | > 100 µM | 0.1 µM | 9 µM | > 100 µM | > 100 µM | > 100 µM | inhibition [1]: 14%; IC50 (Thymidylate synthase [3]): > 100 µM; GI50 (A549): > 100 µM; EC50 (CCRF-CEM): > 10 µM; GI50 (NCI-H226): > 100 µM; GI50 (NCI-H460): > 100 µM
4 | CCc1nc(N)nc2[nH]cc(CCc3ccc(C(=O)N[C@@H](CCC(=O)O)C(=O)O)cc3)c12 | 0.75 µM | 0.695 µM | 0.0185 µM | < 0.01 µM | < 0.01 µM | < 0.01 µM | < 0.01 µM | < 0.01 µM | < 0.01 µM | < 0.01 µM | < 0.01 µM | < 0.01 µM | < 0.01 µM | < 0.01 µM | < 0.01 µM | > 100 µM | 80 µM | < 0.01 µM | < 0.01 µM | 0.169 µM | IC50 (Thymidylate synthase [4]): 80 µM; GI50 (A549): < 0.01 µM; EC50 (CCRF-CEM): 0.015 µM; GI50 (NCI-H226): < 0.01 µM; GI50 (NCI-H460): < 0.01 µM
5 | Folylpolyglutamate synthase, mitochondrial (Homo sapiens), Q05932 (protein) MSRARSHLRAALFLAAASARGITTQVAARRGLSAWPVPQEPSMEYQDAVRMLNTLQTNAGYLEQVKRQRGDPQTQLEAMELYLARSGLQVEDLDRLNIIHVTGTKGKGSTCAFTECILRSYGLKTGFFSSPHLVQVRERIRINGQPISPELFTKYFWRLYHRLEETKDGSCVSMPPYFRFLTLMAFHVFLQEKVDLAVVEVGIGGAYDCTNIIRKPVVCGVSSLGIDHTSLLGDTVEKIAWQKGGIFKQGVPAFTVLQPEGPLAVLRDRAQQISCPLYLCPMLEALEEGGPPLTLGLEGEHQRSNAALALQLAHCWLQRQDRHGAGEPKASRPGLLWQLPLAPVFQPTSHMRLGLRNTEWPGRTQVLRRGPLTWYLDGAHTASSAQACVRWFRQALQGRERPSGGPEVRVLLFNATGDRDPAALLKLLQPCQFDYAVFCPNLTEVSSTGNADQQNFTVTLDQVLLRCLEHQQHWNHLDEEQASPDLWSAPSPEPGGSASLLLAPHPPHTCSASSLVFSCISHALQWISQGRDPIFQPPSPPKGLLTHPVAHSGASILREAAAIHVLVTGSLHLVGGVLKLLEPALSQ | – | – | – | – | – | – | – | – | – | – | – | – | – | – | – | – | – | – | – | – | Km [5]: < 2 µM; Km [6]: 96 µM; Vmax [7]: 1 µM; relative Vmax [8]: 0.17; relative Vmax [9]: 0.23; relative Vmax [10]: 0.1
